Source: US11247998B2, “Piperazine heteroaryl derivative, preparation method therefor and use of same in medicine” (priority 2017, dated 2022)
Where two headings read alike, the source gives them in different places.

Legend:
[1] = Pharmacokinetics assay in rats after intragastrical administration (LC/MS/MS of plasma); type: in vivo; conditions: SD rats, 2 mg/kg; for Vd/F / AUC / bioavailability / CL/F / half-life / Cmax / MRT: both sexes, rat, plasma, po; for Vd/F: read-out: Apparent distribution volume Vz/F; for AUC: read-out: Area under curve AUC; for bioavailability: read-out: Bioavailability (%) F %; for CL/F: read-out: Clearance CLz/F; for half-life: read-out: Half-life T1/2 (converted); for Cmax: read-out: Plasma concentration Cmax; for MRT: read-out: Residence time MRT
Protocol: Pharmacokinetics assay of the compound of the present invention
Rats were used as test animals. The drug concentration in plasma at different time points was determined by LC/MS/MS method after intragastrical administration of the compound of Example 1, the compound of Example 2, the compound of Example 4, the compound of Example 6, the compound of Example 7, the compound of Example 11, the compound of Example 39, the compound of Example 42, the compound of Example 44, the compound of Example 45 and the compound of Example 47 to rats. The pharmacokinetic behavior and property of the compound of the present invention were studied and evaluated in rats.
44 Healthy adult SD rats (half male and half female, 4 rats/group) were purchased from Shanghai Jiesijie Laboratory Animal Co., LTD, with Certificate No.: SCXK (Shanghai) 2013-0006.
A certain amount of the test compound was weighed, and added with 5% by volume of DMSO, 5% by volume of tween 80 and 90% by volume of normal saline to prepare a 0.2 mg/mL colorless, clear and transparent solution.
After an overnight fast, SD rats were administrated intragastrically with the test compound at an administration dose of 2.0 mg/kg and an administration volume of 10.0 mL/kg.
The rats were intragastrically administrated the compound of Example 1, the compound of Example 2, the compound of Example 4, the compound of Example 6, the compound of Example 7, the compound of Example 11, the compound of Example 39, the compound of Example 42, the compound of Example 44, the compound of Example 45 and the compound of Example 47. 0.1 ml of blood was taken from the orbit before administration and at 0.5, 1.0, 2.0, 4.0, 6.0, 8.0, 11.0 and 24.0 hours after administration. The samples were stored in heparinized tubes, and centrifuged for 10 minutes at 3500 rpm to separate the blood plasma. The plasma samples were stored at −20° C. The rats were fed two hours after administration.
The content of the test compound in the plasma of rats after intragastrical administration of the test compound at different concentrations was determined: 25 μL of rat plasma at each time after administration was taken, added with 40 μL of the internal standard solution of camptothecin (100 ng/mL) and 200 μL of acetonitrile, vortex-mixed for 5 minutes, and centrifuged for 10 minutes (4000 rpm). 0.2 μL of the supernatant was taken from the plasma samples for LC/MS/MS analysis.

[2] = system: HBV DNA replication in HepG2.2.15 cells; test: In vitro anti-HBV activity test (quantitative assay of intracellular HBV DNA), HepG2.2.15 cells, quantitative PCR; type: cell-based, hepatitis B virus (HBV); conditions: HBV DNA by quantitative PCR; for EC50: compound treatment Day 2 to Day 8; for Emax: read-out: Emax (effect value of the compound to maximally inhibit HBV DNA replication)
Protocol: In vitro anti-HBV activity test of the compound of the present invention (quantitative assay of intracellular HBV DNA)
HepG2.2.15 cell is a stable expression cell line that has integrated HBV genome.
Virus particles containing HBV DNA can be synthesized by replication, transcription and encapsidation in the cells, and then secreted. In this study, the quantitative analysis of HBV DNA produced by HepG2.2.15 in vitro proliferation was carried out by quantitative PCR method, thereby determining the activity of the compound of the present invention on inhibiting the HBV DNA replication by inhibiting the assembly of HBV capsid protein.
HepG2.2.15 cells were cultured in DMEM/high glucose medium (10% FBS, […] G418) and passaged every three days. On the day of the experiment, a cell suspension was prepared with fresh cell culture medium, and incubated in a 96-well plate (Corning, #3599) at 40,000 cells/well, at 5% carbon dioxide, 37° C. On Day 2, the compound was dissolved in pure DMSO at a concentration of 20 mM, and then the first concentration of 2 mM was formulated with DMSO, and diluted in 4-fold concentration gradient to 8 concentrations. A control well was added with 90 μl of DMSO. The compound solution was diluted 200-fold with DMEM/high glucose medium. The cell culture plate inoculated on Day 1 was taken out. The medium in the wells was removed by a negative pressure suction device, and the formulated medium containing the compound at each concentration was added respectively to each well at 200 μl/well. The plate was incubated at 37° C. for 72 hours. On Day 5, the medium of the cultured cells was replaced with fresh medium containing the same compound in the same way as Day 2, and then the plate was incubated at 37° C. for 72 hours. On Day 8, the cell culture plate was taken out, centrifuged at 300 g for 3 minutes, and the culture supernatant was collected at 200 μl/well. HBV DNA was extracted from the cell culture supernatant with Qiagen automatic DNA extraction device, and the specific method referred to the instructions of the reagents and instruments. Finally, the extracted DNA was eluted with DNA elution buffer at 100 μl/well. The extracted DNA was subjected to quantitative PCR analysis of HBV DNA using Hepatitis B virus nucleic acid quantitative detection kit (Triplex International Biosciences Co., Ltd.), and the specific method referred to the instruction of the kit. The quantitative standard curve was obtained with the standard sample provided in the kit, and the experiments were performed in parallel. Quantitative conversion of each sample was carried out according to the standard curve. Finally, the EC50 value of the compound was calculated with Graphpad Prism software according to each concentration of the compound and the corresponding DNA value.
The in vitro activity of the compound of the present invention on inhibiting the HBV DNA replication by inhibiting the assembly of HBV capsid protein was determined by the above experiment.

[3] = system: HepG2 cells; test: Effect on in vitro proliferation of HepG2 cells (CellTiter-Glo); type: cell-based
Protocol: (§1) Test Example 2. Effect of the Compound of the Present Invention on In Vitro Proliferation of HepG2 Cells
(§2) HepG2 cells in logarithmic growth phase were taken and digested with trypsin to prepare a cell suspension, which was incubated in a 96-well plate (transparent bottom white 96-well plate, PerkinElmer) at 6,000 cells/well, at 5% carbon dioxide, 37° C. for 16-20 hours. On Day 2, the compound was dissolved in pure DMSO at a concentration of 20 mM. The compound was diluted in 3-fold concentration gradient using an automatic pipetting station (Bravo), 8 concentration points for each compound, and the control well was DMSO. The compound formulated in DMSO at each concentration point was diluted 200-fold with EMEM (containing 10% FBS) medium. The cell culture plate inoculated on Day 1 was taken out. The medium in the wells was removed by a negative pressure suction device, and the formulated medium containing the compound at each concentration was added respectively to each well at 100 μl/well. The plate was incubated at 37° C. for 72 hours. On Day 5, the 96-well cell culture plate was taken out, and freshly formulated CellTiter Glo was added to each well at 100 μl/well. The 96-well plate was left to stand for 5-10 minutes, the bottom was then sealed with a white bottom sealing film (PerkinElmer). The plate was placed in the microplate reader to measure the luminescence signal. The CC50 value of the compound was calculated with Graphpad Prism software according to each concentration of the compound and the corresponding proliferation inhibition signal value.
(§3) The inhibition effect of the compound of the present invention on in vitro proliferation of HepG2 cells was determined by the above experiment.

[4] = as above; type: cell-based; conditions: human; HepG2 cells, 72 hours, CellTiter-Glo
Protocol: as §1, §2, §3

[5] = HepG2 cells, 72 hours, CellTiter-Glo, read-out: CC50

C[C@H]1Cn2nnc(C(=O)N[C@H](C)C(F)(F)F)c2CN1C(=O)Nc1ccc(F)c(F)c1 [Example 39, (S)—N^5-(3,4-Difluorophenyl)-6-methyl-N^3-((R)-1,1,1-trifluoropropan-2-yl)-6,7-dihydro-[1,2,3]triazolo[1,5-α]pyrazine-3,5(4H)-dicarboxamide]
Area under curve AUC [1]: 8105 ± 1585 ng·h/mL
Bioavailability (%) F % [1]: 114%
Clearance CLz/F [1]: 4.21 ± 0.69 mL/min/kg
Half-life T1/2 [1]: 6.49 ± 1.71 h
Plasma concentration Cmax [1]: 682 ± 168 ng/mL
Residence time MRT [1]: 9.82 ± 1.75 h
Emax (effect value of the compound to maximally inhibit HBV DNA replication) [2]: 100%
EC50 [2]: 19 nM
CC50 [3, 5]: > 100 µM

C[C@H]1Cn2nnc(C(=O)N[C@H](C)C(F)(F)F)c2CN1C(=O)Nc1ccc(F)c(C#N)c1 [Example 45, (S)—N^5-(3-Cyano-4-fluorophenyl)-6-methyl-N^3-((R)-1,1,1-trifluoropropan-2-yl)-6,7-dihydro-[1,2,3]triazolo[1,5-α]pyrazine-3,5(4H)-dicarboxamide]
Area under curve AUC [1]: 17162 ± 5791 ng·h/mL
Bioavailability (%) F % [1]: 110%
Clearance CLz/F [1]: 2.13 ± 0.73 mL/min/kg
Half-life T1/2 [1]: 19.2 ± 7.16 h
Plasma concentration Cmax [1]: 715 ± 187 ng/mL
Residence time MRT [1]: 27.4 ± 9.5 h
Emax (effect value of the compound to maximally inhibit HBV DNA replication) [2]: 102%
EC50 [2]: 38 nM
CC50 [3, 5]: > 100 µM

C[C@@H]1CN(C(=O)Nc2ccc(F)c(F)c2)Cc2c(C(=O)N[C@H](C)C(F)(F)F)nnn21 [Example 42, (R)—N^5-(3,4-Difluorophenyl)-7-methyl-N^3-((R)-1,1,1-trifluoropropan-2-yl)-6,7-dihydro-[1,2,3]triazolo[1,5-α]pyrazine-3,5(4)-dicarboxamide]
Vd/F [1]: 5.96 ± 1.22 L/kg
AUC [1]: 7380 ± 3180 ng·h/mL
bioavailability [1]: 87%
CL/F [1]: 5.3 ± 2.47 mL/min/kg
half-life [1]: 954 ± 534 min
Cmax [1]: 433 ± 102 ng/mL
MRT [1]: 22.1 ± 12.4 h
EC50 ([2]; Hepatitis B virus): 75 nM
Emax ([2]; Hepatitis B virus): 100%
CC50 at 72 h [4]: > 100 µM

C[C@H](NC(=O)c1nnn2c1CN(C(=O)Nc1ccc(F)c(F)c1)[C@@H](C)C2)C(F)(F)F [Example 43, (S)—N^5-(3,4-Difluorophenyl)-6-methyl-N^3—((S)-1,1,1-trifluoropropan-2-yl)-6,7-dihydro-[1,2,3]triazolo[1,5-α]pyrazine-3,5(4-)-dicarboxamide]
Emax (effect value of the compound to maximally inhibit HBV DNA replication) [2]: 99%
EC50 [2]: 39 nM
CC50 [3]: > 100 µM

C[C@@H](NC(=O)c1cnn2c1CN(C(=O)Nc1cc(F)c(F)c(F)c1)CC2)C(F)(F)F [Example 4, (R)—N^5-(3,4,5-Trifluorophenyl)-N^3-(1,1,1-trifluoropropan-2-yl)-6,7-dihydropyrazolo[1,5-α]pyrazine-3,5(4H)-dicarboxamide]
Vd/F [1]: 3.69 ± 0.532 L/kg
AUC [1]: 7130 ± 2640 ng·h/mL
bioavailability [1]: 120%
CL/F [1]: 5.08 ± 1.48 mL/min/kg
half-life [1]: 528 ± 117 min
Cmax [1]: 425 ± 100 ng/mL
MRT [1]: 13.1 ± 2.5 h
EC50 ([2]; Hepatitis B virus): 27 nM
Emax ([2]; Hepatitis B virus): 100%
CC50 at 72 h [4]: > 100 µM
